{"source": "patent US9155706B2", "about": "“Pharmaceutical composition” (Novartis AG, priority 2010, dated 2015)", "key": {"[1]": {"experiment": "Photostability: light exposure under ICH Q1B conditions, impurities by HPLC", "format": "physicochemical", "protocol": "Uncoated tablets, 0.5, 1 and 2 mg were exposed to ICH Photostability conditions and tested to provide baseline impurity information for comparison."}, "[2]": {"experiment": "Toxic effects at high doses (statement)", "format": "in vivo", "settings": "when administered in high doses"}, "[3]": {"experiment": "Desolvation during handling and formulation (statement)", "format": "physicochemical"}, "[4]": {"experiment": "Exposure and absorption upon in vivo administration (statement)"}, "[5]": {"experiment": "Solubility (comparative statement)", "format": "physicochemical"}, "clinical": {"experiment": "clinical", "settings": "human, plasma, oral, 2 mg"}, "[6]": {"experiment": "Repeat-dose (Day 15) pharmacokinetics of Compound tablets, first-time-in-human study", "settings": "individual values"}, "[7]": {"settings": "female, beagle, dog, in vivo, po", "source_text": "(§1) The pharmacokinetics, absorption, distribution, metabolism and elimination of N-{3-[3-cyclopropyl-5-(2-fluoro-4-iodo-phenylamino)-6, 8-dimethyl-2,4,7-trioxo-3,4,6,7-tetrahydro-2H-pyrido[4,3-d]pyrimidin-1-yl]phenyl}acetamide and solvates thereof, including the dimethyl sulfoxide solvate (collectively referred to as “Compound” when used in connection with animal models or human clinical trials), were investigated in a series of in vitro investigations and with in vivo oral (gavage) and IV studies in the Balb/c mouse, Sprague Dawley rat (unless otherwise stated), beagle dog and cynomolgus monkey using unlabeled and [14C]-labeled Compound. A list of these studies is included, along with subsequently obtained human clinical results, in Table 1 below. For in vivo studies, various formulations were used. For oral dosing, solutions or suspensions were administered.\n(§2) Dose range studies in rats at doses up to 1 mg/kg/day for 14 days and in dogs at doses up to 0.5 mg/kg/day (or 10 mg/m2/day) for 10 days were conducted prior to the studies.\nIn vivo toxicology studies were conducted in Sprague Dawley rats and beagle dogs by oral gavage (Table 3). Studies were conducted using the DMSO solvate of Compound formulated as a suspension in 1.5% hydroxypropylmethylcellulose, 5% mannitol, and 0.2% sodium lauryl sulfate. For all toxicology studies, doses are expressed based on body surface area (mg/m2). […]"}, "[8]": {"experiment": "Repeat dose toxicokinetics and toxicology, oral gavage, DMSO solvate of Compound, rat", "settings": "for Cmax End of Study: Sprague Dawley, rat, in vivo, po, 0.25 mg/m2", "source_text": "as §1, §2\nIn vivo toxicology studies were conducted in Sprague Dawley rats and beagle dogs by oral gavage (Table 3). Studies were conducted using the DMSO solvate of Compound formulated as a suspension in 1.5% hydroxypropylmethylcellulose, 5% mannitol, and 0.2% sodium lauryl sulfate. For all toxicology studies, doses are expressed based on body surface area (mg/m2). In general, to convert mg/m2 doses to mg/kg, divide the doses by 8 for rats and 20 for dogs."}, "[9]": {"experiment": "Single-dose (Day 1) pharmacokinetics of Compound tablets, first-time-in-human study", "settings": "fasting; for AUC(0-t): AUC (0-24); for Tmax: median (range)"}, "[10]": {"settings": "single dose Day 1, oral tablets, 0.5 mg, individual values"}, "[11]": {"settings": "single dose Day 1, oral tablets, 1.0 mg, individual values"}}, "note": "Several values for one entry are separate records, joined by “and”; a condition that tells them apart may be missing. Equal entries are not always repeated. Entries after “also recorded” stand apart in the source; their conditions may differ. Where two headings read alike, the source gives them in different places.", "data": [{"smiles": "CC(=O)Nc1cccc(-n2c(=O)n(C3CC3)c(=O)c3c(Nc4ccc(I)cc4F)n(C)c(=O)c(C)c32)c1", "note": "[Compound A, N-{3-[3-cyclopropyl-5-(2-fluoro-4-iodo-phenylamino)-6,8-dimethyl-2,4,7-trioxo-3,4,6,7-tetrahydro-2H-pyrido[4,3-d]pyrimidin-1-yl]phenyl}acetamide dimethyl sulfoxide solvate]", "values": [{"measurement": "photo-stability (in words)", "setting": "[1]", "result": "sensitive to photo-induced degradation; also recorded: can suffer from photo-instability"}, {"measurement": "toxic effects", "setting": "[2]", "result": "can cause toxic effects when administered in high doses"}, {"measurement": "desolvation to unsolvated Compound B", "setting": "[3]", "result": "can undergo desolvation"}, {"measurement": "exposure and absorption", "setting": "[4]", "result": "poor exposure and absorption"}]}, {"smiles": "CC(=O)Nc1cccc(-n2c(=O)n(C3CC3)c(=O)c3c(Nc4ccc(I)cc4F)n(C)c(=O)c(C)c32)c1", "note": "[Compound B, N-{3-[3-cyclopropyl-5-(2-fluoro-4-iodo-phenylamino)-6,8-dimethyl-2,4,7-trioxo-3,4,6,7-tetrahydro-2H-pyrido[4,3-d]pyrimidin-1-yl]phenyl}acetamide]", "values": [{"measurement": "solubility compared with Compound A", "setting": "[5]", "result": "much less soluble than Compound A"}]}, {"smiles": "CC(=O)Nc1cccc(-n2c(=O)n(C3CC3)c(=O)c3c(Nc4ccc(I)cc4F)n(C)c(=O)c(C)c32)c1", "note": "[Compound, N-{3-[3-cyclopropyl-5-(2-fluoro-4-iodo-phenylamino)-6,8-dimethyl-2,4,7-trioxo-3,4,6,7-tetrahydro-2H-pyrido[4,3-d]pyrimidin-1-yl]phenyl}acetamide]", "values": [{"measurement": "half-life", "setting": "clinical", "result": "~120", "unit": "h"}, {"measurement": "AR (Accumulation Ratio)", "setting": "[6]; repeat dose Day 15, 0.50 mg", "result": "28.3 and 10.2"}, {"measurement": "T1/2, eff (Effective Half-Life)", "setting": "[6]; repeat dose Day 15, 0.50 mg", "result": "461 h and 161 h"}, {"measurement": "AR (Accumulation Ratio)", "setting": "[6]; repeat dose Day 15, 1 mg", "result": "18.1 and 7.8"}, {"measurement": "T1/2, eff (Effective Half-Life)", "setting": "[6]; repeat dose Day 15, 1 mg", "result": "293 h and 122 h"}, {"measurement": "AR (Accumulation Ratio)", "setting": "[6]; repeat dose Day 15, 4 mg", "result": "2.42 and 3.45"}, {"measurement": "T1/2, eff (Effective Half-Life)", "setting": "[6]; repeat dose Day 15, 4 mg", "result": 48.5, "unit": "h"}, {"measurement": "Cmax End of Study", "setting": "[7]; 0.3 mg/m2", "result": 7.24, "unit": "ng/mL"}, {"measurement": "Cmax End of Study", "setting": "[7]; 0.45 mg/m2", "result": 9.78, "unit": "ng/mL"}, {"measurement": "maximum tolerated dose (MTD)", "setting": "[8]; Rat, 3 weeks, oral, two doses marked MTD, sex shown by bolding that is lost", "result": "0.5 mg/m^2/day and 1 mg/m^2/day"}, {"measurement": "Cmax End of Study", "setting": "[8]; female", "result": 8.03, "unit": "ng/mL"}, {"measurement": "Cmax End of Study", "setting": "[8]; male", "result": 5.34, "unit": "ng/mL"}, {"measurement": "C24", "setting": "[9]; Day 1, oral tablets, 6.0 mg loading dose, mean (CV %) and range", "result": "(3.4-11.1) ng/mL"}, {"measurement": "C24", "setting": "[9]; Day 1, oral tablets, 8.0 mg loading dose, mean (CV %) and range", "result": "(2.98-12.1) ng/mL"}, {"measurement": "C24", "setting": "[9]; Day 1, oral tablets, 10.0 mg loading dose, mean (CV %) and range", "result": "(21.0-29.0) ng/mL"}, {"measurement": "Cmax", "setting": "[9]; human, plasma, po, 0.5 mg, Cmax, single dose Day 1, oral tablets, 0.5 mg, individual values", "result": 0.85, "unit": "ng/mL"}, {"measurement": "AUC(0-t)", "setting": "[9]; human, plasma, po, 1 mg, single dose Day 1, oral tablets, 1.0 mg, individual values", "result": 13.5, "unit": "ng·h/mL"}, {"measurement": "Cmax", "setting": "[9]; human, plasma, po, 1 mg, Cmax, single dose Day 1, oral tablets, 1.0 mg, individual values", "result": 1.71, "unit": "ng/mL"}, {"measurement": "AUC(0-t)", "setting": "[9]; human, plasma, po, 2 mg, single dose Day 1, oral tablets, 2.0 mg, mean (CV %) and range", "result": "44.2 to 77.4", "unit": "ng·h/mL"}, {"measurement": "Cmax", "setting": "[9]; human, plasma, po, 2 mg, Cmax, single dose Day 1, oral tablets, 2.0 mg, mean (CV %) and range", "result": "5.4 to 8.81", "unit": "ng/mL"}, {"measurement": "Tmax", "setting": "[9]; human, plasma, po, 2 mg, single dose Day 1, oral tablets, 2.0 mg", "result": "1.5 to 2", "unit": "h"}, {"measurement": "AUC(0-t)", "setting": "[9]; human, plasma, po, 2.5 mg, single dose Day 1, oral tablets, 2.5 mg, mean (CV %) and range", "result": "47.3 to 95.9", "unit": "ng·h/mL"}, {"measurement": "Cmax", "setting": "[9]; human, plasma, po, 2.5 mg, Cmax, single dose Day 1, oral tablets, 2.5 mg, mean (CV %) and range", "result": "6.7 to 16.2", "unit": "ng/mL"}, {"measurement": "Tmax", "setting": "[9]; human, plasma, po, 2.5 mg, single dose Day 1, oral tablets, 2.5 mg", "result": "1 to 2", "unit": "h"}, {"measurement": "AUC(0-t)", "setting": "[9]; human, plasma, po, 3 mg, single dose Day 1, oral tablets, 3.0 mg, mean (CV %) and range", "result": "27.6 to 188", "unit": "ng·h/mL"}, {"measurement": "Cmax", "setting": "[9]; human, plasma, po, 3 mg, Cmax, single dose Day 1, oral tablets, 3.0 mg, mean (CV %) and range", "result": "2.82 to 22.9", "unit": "ng/mL"}, {"measurement": "Tmax", "setting": "[9]; human, plasma, po, 3 mg, single dose Day 1, oral tablets, 3.0 mg", "result": "0.5 to 3", "unit": "h"}, {"measurement": "AUC(0-t)", "setting": "[9]; human, plasma, po, 4 mg, single dose Day 1, oral tablets, 4.0 mg, mean (CV %) and range", "result": "167 to 275", "unit": "ng·h/mL"}, {"measurement": "Cmax", "setting": "[9]; human, plasma, po, 4 mg, Cmax, single dose Day 1, oral tablets, 4.0 mg, mean (CV %) and range", "result": "16.3 to 34.2", "unit": "ng/mL"}, {"measurement": "AUC(0-t)", "setting": "[9]; human, plasma, po, 6 mg, Day 1, oral tablets, 6.0 mg loading dose, mean (CV %) and range", "result": "96.7 to 320", "unit": "ng·h/mL"}, {"measurement": "Cmax", "setting": "[9]; human, plasma, po, 6 mg, Cmax, Day 1, oral tablets, 6.0 mg loading dose, mean (CV %) and range", "result": "6.91 to 37.2", "unit": "ng/mL"}, {"measurement": "Tmax", "setting": "[9]; human, plasma, po, 6 mg, Day 1, oral tablets, 6.0 mg loading dose", "result": "1.05 to 8.08", "unit": "h"}, {"measurement": "AUC(0-t)", "setting": "[9]; human, plasma, po, 8 mg, Day 1, oral tablets, 8.0 mg loading dose, mean (CV %) and range", "result": "62.9 to 308", "unit": "ng·h/mL"}, {"measurement": "Cmax", "setting": "[9]; human, plasma, po, 8 mg, Cmax, Day 1, oral tablets, 8.0 mg loading dose, mean (CV %) and range", "result": "4.28 to 32", "unit": "ng/mL"}, {"measurement": "Tmax", "setting": "[9]; human, plasma, po, 8 mg, Day 1, oral tablets, 8.0 mg loading dose", "result": "1 to 24", "unit": "h"}, {"measurement": "AUC(0-t)", "setting": "[9]; human, plasma, po, 10 mg, Day 1, oral tablets, 10.0 mg loading dose, mean (CV %) and range", "result": "773 to 979", "unit": "ng·h/mL"}, {"measurement": "Cmax", "setting": "[9]; human, plasma, po, 10 mg, Cmax, Day 1, oral tablets, 10.0 mg loading dose, mean (CV %) and range", "result": "65.1 to 87.8", "unit": "ng/mL"}, {"measurement": "Tmax", "setting": "[9]; human, plasma, po, 10 mg, Day 1, oral tablets, 10.0 mg loading dose", "result": "1 to 2", "unit": "h"}, {"measurement": "AUC (0-24)", "setting": "[9]; [10]", "result": "2.13 ng·h/mL and 9.69 ng·h/mL"}, {"measurement": "C24", "setting": "[9]; [10]", "result": "0 ng/mL and 0.31 ng/mL"}, {"measurement": "AUC (0-24)", "setting": "[9]; [11]", "result": 12.2, "unit": "ng·h/mL"}, {"measurement": "C24", "setting": "[9]; [11]", "result": "0.38 ng/mL and 0.27 ng/mL"}, {"measurement": "Cmax", "setting": "[9]; [11]", "result": 1.96, "unit": "ng/mL"}, {"measurement": "C24", "setting": "[9]; single dose Day 1, oral tablets, 2.0 mg, mean (CV %) and range", "result": "(1.15-1.93) ng/mL"}, {"measurement": "C24", "setting": "[9]; single dose Day 1, oral tablets, 2.5 mg, mean (CV %) and range", "result": "(1.25-3.10) ng/mL"}, {"measurement": "C24", "setting": "[9]; single dose Day 1, oral tablets, 3.0 mg, mean (CV %) and range", "result": "(0.75-13.4) ng/mL"}, {"measurement": "C24", "setting": "[9]; single dose Day 1, oral tablets, 4.0 mg, mean (CV %) and range", "result": "(5.53-14.9) ng/mL"}]}]}
